Results on seven molecules are retold here after ChEMBL document CHEMBL1139883, “Additional scalarane sesterterpenes from the sponge Phyllospongia papyracea” (J Nat Prod, 2007).

The structures appear in SMILES notation. Activity calls are given as the source filed them. The calls are words filed in the database; no cut-off is given here.

This assay deals with T1, Catenin beta-1 (Homo sapiens) (UniProt P35222).
T1 sequence (whole entry): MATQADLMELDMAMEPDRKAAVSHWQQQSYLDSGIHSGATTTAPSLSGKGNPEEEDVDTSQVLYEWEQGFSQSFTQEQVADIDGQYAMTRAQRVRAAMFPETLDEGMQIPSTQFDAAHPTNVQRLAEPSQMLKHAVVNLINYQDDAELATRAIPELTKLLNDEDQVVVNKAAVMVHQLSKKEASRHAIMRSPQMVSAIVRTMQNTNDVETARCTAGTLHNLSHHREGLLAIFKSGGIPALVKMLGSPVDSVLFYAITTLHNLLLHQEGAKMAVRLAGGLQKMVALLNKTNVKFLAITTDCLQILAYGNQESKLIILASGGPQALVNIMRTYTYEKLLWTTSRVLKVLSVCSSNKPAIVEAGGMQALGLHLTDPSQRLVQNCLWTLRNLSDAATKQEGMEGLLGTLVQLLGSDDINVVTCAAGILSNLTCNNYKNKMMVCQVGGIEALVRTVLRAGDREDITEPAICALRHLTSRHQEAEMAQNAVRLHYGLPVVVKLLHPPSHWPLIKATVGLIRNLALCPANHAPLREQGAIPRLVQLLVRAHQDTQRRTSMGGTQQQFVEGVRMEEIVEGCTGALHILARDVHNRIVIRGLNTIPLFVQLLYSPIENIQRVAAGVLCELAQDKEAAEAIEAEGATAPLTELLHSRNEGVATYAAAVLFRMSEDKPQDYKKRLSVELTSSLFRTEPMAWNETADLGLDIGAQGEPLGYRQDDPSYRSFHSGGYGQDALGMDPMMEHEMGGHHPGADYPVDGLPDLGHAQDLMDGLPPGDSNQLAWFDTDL
Kind of assay: Activity against beta […]/Tcf4 complex by PPI assay.

For `CC[C@@]1(C)CCC[C@]2(C)[C@H]3C[C@H](OC(C)=O)[C@]4(C)C5=C(C(=O)C[C@H]4[C@]3(C)CC[C@@H]12)C(C)OC5=O` (some centres not stated), the result was inactive. With `CC[C@@]1(C)CCC[C@]2(C)[C@H]3C[C@H](OC(C)=O)[C@]4(C)[C@@H](C(=O)O)C(C(C)=O)=CC[C@H]4[C@]3(C)CC[C@@H]12`, the result was inactive.

For the molecule `CC[C@@]1(C)CCC[C@]2(C)[C@H]3C[C@H](OC(C)=O)[C@]45C[C@@H](O)[C@H]4C(C(C)=O)=CC[C@H]5[C@]3(C)CC[C@@H]12`, the outcome was inactive. To `CC[C@@]1(C)CCC[C@]2(C)[C@H]3C[C@H](OC(C)=O)[C@@]4(C)C(=CC(=O)C5=C4C(=O)OC5(C)O)[C@]3(C)CC[C@@H]12` (some centres not stated) belongs “inactive”. The value for `CC[C@@]1(C)CCC[C@]2(C)[C@H]3C[C@H](OC(C)=O)[C@]45C[C@H](O)[C@H]4C(C(C)=O)=CC[C@H]5[C@]3(C)CC[C@@H]12` was “inactive”; that for `CC[C@@]1(C)CCC[C@]2(C)[C@H]3C[C@H](OC(C)=O)[C@]4(C)[C@@H](O)C(C(C)=O)=CC[C@H]4[C@]3(C)CC[C@@H]12` was “inactive”.

`CCC(O)CC(=O)O[C@@H]1C[C@H]2[C@]3(C)CC[C@H]4[C@@](C)(CC)CCC[C@]4(C)[C@H]3C[C@H](OC(C)=O)[C@]2(C)[C@@H](C(=O)O)[C@@H]1C(C)=O` (some centres not stated): the result was inactive.
